Source: article PMC10580313, “A Chemoproteomic Approach to Elucidate the Mechanism of Action of 6-Azasteroids with Unique Activity in Mycobacteria” (ACS Infectious Diseases, 2023)
pIC50: −log10 of the molar value.

Legend:
Mtb = experiment: MIC of 6-azasteroid alone, Mtb; format: cell-based, Mycobacterium tuberculosis; conditions: (MIC99 reported as micromolar)
THP-1 cells = experiment: Cytotoxicity assay (Alamar Blue), THP-1; format: cell-based; conditions: 72 h, read-out: Mammalian Cell IC50, THP1
Mtb (CDC1551) = experiment: BDQ potentiation MIC99 microbroth assay, Mtb; format: cell-based, Mycobacterium tuberculosis; conditions: 6-azasteroid fixed at 20 μM; relative to BDQ MIC99 without azasteroid
HepG2 cells = experiment: Cytotoxicity assay (Alamar Blue), HepG2; format: cell-based, human; conditions: 72 h, read-out: Mammalian Cell IC50, HepG2

| Compound | Mtb MIC Alone (Mtb) | pIC50 (THP-1 cells) | Fold ∆ of BDQ MIC, Mtb (Mtb (CDC1551)) | pIC50 (HepG2 cells) |
| --- | --- | --- | --- | --- |
| CCCN1CC2C3CCC(C(=O)Nc4cc(C(C)(C)C)ccc4C(C)(C)C)[C@@]3(C)CCC2[C@@]2(C)CCC(=O)CC12 (some centres unmarked) [compound 4] | 20 µM | 4.14 | – | – |
| CC(C)(C)c1ccc(C(F)(F)F)cc1NC(=O)C1CCC2C3CNC4=CC(=O)CC[C@]4(C)C3CC[C@]12C (some centres unmarked) [compound 5] | > 20 µM | – | 2 fold | 4.22 |
| CC(C)(C)c1ccc(C(F)(F)F)cc1NC(=O)C1CCC2C3CNC4CC(=O)CC[C@]4(C)C3CC[C@]12C (some centres unmarked) [compound 7] | 30 µM | – | – | 4.92 |
| C[C@]12CCC(=O)CC1NCC1C2CC[C@]2(C)C(C(=O)Nc3cc(Br)ccc3Br)CCC12 (some centres unmarked) [compound 10] | 30 µM | – | – | 5.12 |
| CCCN1CC2C3CCC(C(=O)NC(c4ccc(F)cc4)c4ccc(F)cc4)[C@@]3(C)CCC2[C@@]2(C)CCC(=O)C=C12 (some centres unmarked) [compound 13] | > 20 µM | – | 128 fold | < 4.00 |
| C[C@]12CCC(=O)CC1NCC1C2CC[C@]2(C)C(C(=O)NC(c3ccc(F)cc3)c3ccc(F)cc3)CCC12 (some centres unmarked) [compound 14] | 80 µM | – | – | 4.85 |
| C[C@]12CCC3C(CNC4=CC(=O)CC[C@@]43C)C1CCC2C(=O)NC(c1ccc(F)cc1)c1ccc(C(F)(F)F)cc1 (some centres unmarked) [compound 15] | > 20 µM | – | 64 fold | 4.59 |
| C[C@]12CCC3C(CNC4=CC(=O)CC[C@@]43C)C1CCC2C(=O)NC(c1ccncc1)c1ccc(F)cc1 (some centres unmarked) [compound 18] | 15 µM | – | 4 fold | < 4.00 |
| C[C@]12CCC3C(CNC4=CC(=O)CC[C@@]43C)C1CCC2C(=O)NC(c1ccc(F)cc1)c1ccc(OC(F)(F)F)cc1 (some centres unmarked) [compound 19] | > 20 µM | – | 32-64 fold | 4.23 |
| C[C@]12CCC(=O)CC1NCC1C2CC[C@]2(C)C(C(=O)NC(c3ccc(F)cc3)c3ccc(OC(F)(F)F)cc3)CCC12 (some centres unmarked) [compound 20] | > 20 µM | – | > 32 fold | 5.24 |
| C[C@]12CCC(O)CC1NCC1C2CC[C@]2(C)C(C(=O)NC(c3ccc(F)cc3)c3ccc(OC(F)(F)F)cc3)CCC12 (some centres unmarked) [compound 21] | > 20 µM | – | > 32 fold | – |
| C[C@]12CCC(=O)CC1NCC1C2CC[C@]2(C)C(C(=O)NC(c3ccc(OC(F)F)cc3)c3ccc(OC(F)F)cc3)CCC12 (some centres unmarked) [compound 23] | 15 µM | 5.48 | – | – |
| C[C@]12CCC3C(CNC4=CC(=O)CC[C@@]43C)C1CCC2C(=O)NC(c1ccc(C(F)(F)F)cc1)c1ccc(C(F)(F)F)cc1 (some centres unmarked) [compound 25] | 20 µM | – | 8 fold | 4.12 |
| C[C@]12CCC(=O)CC1NCC1C2CC[C@]2(C)C(C(=O)NC(c3ccc(C(F)(F)F)cc3)c3ccc(C(F)(F)F)cc3)CCC12 (some centres unmarked) [compound 26] | 7.5 µM | – | – | 5.22 |
| C[C@]12CCC(=O)CC1NCC1C2CC[C@]2(C)C(C(=O)NC(c3ccc(OC(F)(F)F)cc3)c3ccc(OC(F)(F)F)cc3)CCC12 (some centres unmarked) [compound 29] | 5 µM | 5.35 | – | – |
| C[C@]12CCC(N)CC1NCC1C2CC[C@]2(C)C(C(=O)NC(c3ccc(OC(F)(F)F)cc3)c3ccc(OC(F)(F)F)cc3)CCC12 (some centres unmarked) [compound 30] | 80 µM | – | – | 5.57 |
| C[C@]12CCC(O)CC1NCC1C2CC[C@]2(C)C(C(=O)NC(c3ccc(OC(F)(F)F)cc3)c3ccc(OC(F)(F)F)cc3)CCC12 (some centres unmarked) [compound 32] | 5 µM | – | – | 5.24 |
| CC12CCC(=O)C=C1CCC1C2CCC2(C)C(C(=O)NC(c3ccc(OC(F)(F)F)cc3)c3ccc(OC(F)(F)F)cc3)CCC12 (centres unmarked) [compound 33] | > 80 µM | – | 1 fold | < 4.00 |
| CC12CCC(=O)CC1CCC1C2CCC2(C)C(C(=O)NC(c3ccc(OC(F)(F)F)cc3)c3ccc(OC(F)(F)F)cc3)CCC12 (centres unmarked) [compound 34] | > 80 µM | – | 1 fold | < 4.00 |
